# Data as given in patent US12600740B2, “Fluorinated N-acetyl glucosamine analogs and xylose derivatives” (UTI Limited Partnership, priority 2018, dated 2026).
# Entries after “also recorded” stand apart in the source; their conditions may differ.
# Key:
# splenocytes [1] = settings: shown previously (Grigorian et al. 2011); cited from earlier work
# [2] = test system: CSPG production by astrocytes; settings: previously described (Keough et al. 2016); cited from earlier work
# EAE mice [3] = settings: previously shown (Keough et al. 2016), 50 mgkg−1; cited from earlier work
# [4] = test system: mice demyelinated with lysolecithin; settings: previously described (Keough et al. 2016); cited from earlier work
# splenocytes [5] = experiment: Propidium iodide DNA cell cycle flow cytometry of splenocytes; assay type: cell-based, mouse; settings: activated splenocytes
# From the text: Cell-cycle flow cytometry with propidium iodide was used to corroborate the above results, and ensure the reduction in proliferation was not due to cell death. […] To further investigate whether the reduction of proliferation was due to cell death, Annexin V and propidium iodide staining were used to differentiate necrotic cells (propidium iodide+), apoptotic cells (annexin V+), dead cells (propidium iodide+ and annexin V+), and live cells (propidium iodide-annexin V−).
# Cell cycle staining with propidium iodide (PI) and analysis by flow cytometry gives percentage of cells in apoptosis, G1, G2, and synthesis, and apoptosis. Following a membrane permeabilization, PI chelates to DNA and level of staining specifies the stage of the cell cycle (e.g., G2 phase will have twice the DNA and thus twice the PI signal as G1 phase, apoptotic cells contain less DNA than healthy cells and are identified by low PI staining). 1×10^6 splenocytes were used per sample, with four replicates per condition. Cells were collected into a tube with PBS and centrifuged (200 r.p.m. for 5 minutes). […] Suspension was transferred to a FACs tube and analyzed. Annexin V/Propidium iodide staining was detected using the Annexin V FITC apoptosis detection kit (BD Biosciences, #556547), which was performed according to manufacturer's instructions.
# EAE mice [6] = experiment: Flow cytometry of spinal cord and circulating leukocytes in EAE mice; assay type: in vivo, mouse
# From the text: To assess the inflammatory profile of circulating leukocytes, we performed flow cytometry using a modified protocol published previously [Bellavance, M. A., Gosselin, D., Yong, V. W., Stys, P. K. & Rivest, S. Patrolling monocytes play a critical role in CX3CR1-mediated neuroprotection during excitotoxicity. Brain Struct Funct 220, 1759-76 (2015)]. Briefly, mice were anaesthetized using ketamine/xylazine, after which blood was drawn via cardiac puncture. Heparin-coated syringes were used to draw approximately 130 μL of blood, which was then subsequently diluted with 70 μL of Hanks' Balanced Salt Solution (HBSS; Gibco) without calcium and magnesium. Fc receptors were then blocked by addition of Mouse BD Fc Block (1:100; BD Pharmingen) for 30 minutes at 4° C. Primary antibodies (1:50) were then added and incubated for 45 minutes at 4° C. The primary antibodies used were CD45-PerCP (BD Pharmingen; Clone 30-F11), CD11b-FITC (BD Pharmingen; Clone M1/70), Ly6G-APC-Cy7 (BD Pharmingen; Clone 1A8), Ly6C-V450 (BD Horizon; Clone AL-21), and CD3-PE (BD Pharmingen; Clone 17A2). Red blood cells were then lysed by rocking samples at room temperature for 12 minutes with 1 mL of BD FACS Lysing Solution (BD Biosciences). Samples were then washed at 1200 rpm for 10 minutes at 4° C., followed by two more washes at 2000 rpm for 3 minutes at 4° C. Prior to acquisition on a flow cytometer (BD LSRII), cells were then fixed in 1% formalin for 10 minutes and then resuspended in HBSS without calcium and magnesium.
# For flow cytometry of the spinal cord, spinal cords were dissected following a PBS perfusion. The thoracic and lumber sacral part of isolated spinal cords were separated into neural and leucocyte populations by density gradient centrifugation using isotonic Percoll (GE Healthcare). The leukocytes samples were prepared at 4° C. in fluorescence-activated cell sorting (FACS) buffer solution (BD Biosciences) and Fc receptors were then blocked by addition of Mouse BD Fc Block (1:100; BD Pharmingen) for 30 minutes at 4° C. The cells were stained with antibodies against CD45-PerCP (BD Pharmingen; Clone 30-F11), CD11b-FITC (BD Pharmingen; Clone M1/70) and CD3-APC-Cy7 (BD Pharmingen; Clone 17A2) for 45 minutes and then washed three times with FACS buffer. The cells were fixed in 1% buffered formalin for 10 min and resuspended in the 200 μl of the FACS buffer.
# Data acquisition was performed on a flow cytometer (BD FACSAria; BD Biosciences) and analysed with FlowJo software (version 8.6, TreeStar). To ensure proper compensation and gating, unstained samples, appropriate isotype controls, and single-stain controls were included. All data was analyzed using FlowJo software.
# EAE mice [7] = experiment: Perivascular cuffs per spinal cord and Imaris quantification of CD45+ cells in EAE mice; assay type: in vivo, mouse
# From the text: Previously it was shown that CSPGs are accumulated in perivascular cuffs and may have a role in activating immune cells and promoting their migration into the CNS [Stephenson, E. L. et al. Chondroitin sulfate proteoglycans as novel drivers of leucocyte infiltration in multiple sclerosis. Brain: a journal of neurology 141, 1094-1110 (2018)]. For the current study, cervical spinal cord sections from EAE mice treated with Ac-4,4-diF-GlcNAc 16 or vehicle were stained with pan-laminin and CD45. Confocal images were processed by Imaris software to quantify the number of CD45+ cells and their intra-parenchymal distances from perivascular cuffs as previously described [Stephenson, E. L. et al. Chondroitin sulfate proteoglycans as novel drivers of leucocyte infiltration in multiple sclerosis. Brain: a journal of neurology 141, 1094-1110 (2018)] (FIG. 10f).
# Perivascular cuffs were identified with pan-laminin staining of two basement membranes with CD45+ cells clustered within the perivascular space. To obtain the average number of perivascular cuffs per spinal cord, perivascular cuffs were counted on 4 cervical spinal cord sections (each >200 μm apart), and then averaged to obtain the average perivascular cuffs per spinal cord per mouse. The Imaris software (Bitplane, Switzerland) was used to quantify the number and distance of CD45+ cells around perivascular cuffs. CD45+ cells were registered as spots and the laminin-positive membranes were registered as surfaces. The Xtension component in Imaris ‘distance transformation’ calculated the distance of every CD45+ cell from the perivascular cuff.
# splenocytes [8] = experiment: Splenocyte thymidine proliferation assay (anti-CD3/anti-CD28); assay type: cell-based, mouse; settings: increasing concentrations, 48 hours
# [9] = 25 mg/kg daily day 7 to 15, lumbar/thoracic spinal cord
# [10] = 25 mg/kg daily day 7 to 15, spinal cord
structure (smiles),measurement,setting,value
"CC(=O)N[C@H]1[C@H](OC(C)=O)O[C@H](COC(C)=O)[C@@H](OC(C)=O)[C@@H]1OC(C)=O [Compound 1, reference compound]",splenocyte proliferation,splenocytes [1],reduction in splenocyte proliferation
"CC(=O)NC1C(OC(C)=O)OC(COC(C)=O)[C@@H](F)C1OC(C)=O (stereo partly drawn) [Compound 3, reference compound]",production of CSPGs by astrocytes,[2],reduced production of CSPGs by astrocytes
same,EAE clinical disability,EAE mice [3],attenuated the severity of mice afflicted with EAE; also recorded: reduced the ensuing EAE clinical disability
same,remyelination,[4],promoted remyelination following lysolecithin demyelination of the mouse spinal cord
"CC(=O)NC1C(OC(C)=O)OC(COC(C)=O)C(F)(F)[C@@H]1OC(C)=O (mixture of isomers) [Compound 16, 2-Acetamido-1,3,6-tri-O-acetyl-2,4-dideoxy-4,4-difluoro-α/β-D-xylo-hexopyranose]",percentage of cells in cell cycle phases,splenocytes [5],reduced the percentage of cells in the S (DNA synthesis)-phase of the cell cycle
same,"circulating monocyte, neutrophil and lymphocyte populations","EAE mice [6]; 25 mg/kg daily day 7 to 15, blood at peak EAE",no significant difference; also recorded: did not show changes in monocyte or lymphocyte populations; also recorded: did not affect levels of circulating leukocytes
same,CD45+ CD3+ T lymphocytes within the spinal cord,EAE mice [6]; [9],significantly lowered
same,CD45HiCD11b+ infiltrating monocytes/macrophages in spinal cord,EAE mice [6]; [9],significantly decreased
same,median fluorescence intensity of CD11b of CD11b+CD45+ cells,EAE mice [6]; [10],significantly reduced
same,median fluorescence intensity of CD45 in CD11b+CD45+ cells,EAE mice [6]; [10],decreased
same,"CD45+ cells by distance from perivascular cuffs, overall versus vehicle","EAE mice [7]; 0 to 100 μm, two-way repeated measures ANOVA",overall significant difference
same,average number of perivascular cuffs per spinal cord,EAE mice [7]; 25 mg/kg daily day 7 to 15,significantly reduced average number of perivascular cuffs
same,CD45+ cells in the vicinity of perivascular cuffs (within 100 μm),"EAE mice [7]; 25 mg/kg daily day 7 to 15, cervical spinal cord",significantly fewer CD45+ cells in the vicinity of perivascular cuffs
same,number of CD45+ cells at 50-100 μm from perivascular cuffs versus vehicle,EAE mice [7]; 50-100 μm,significant difference
same,dose-response to reduce proliferation in splenocytes,splenocytes [8],more effective than Ac-4-F-GlcNAc 3 at lower concentrations
